This note sets out measurements from PubChem BioAssay AID1963978 (Molecular Pharmacology Branch, DTP, NCI, 2024).

Several values for one entry are separate records, joined by “and”; a condition that tells them apart may be missing. Identical values can stand only once.

The assay concerns 616215-338-R-J1-PDC spheroids with HUVEC/MSC, viability. Kind of assay: Anticancer human tumor 616215-338-R-J1-PDC patient-derived colon adenocarcinoma cell line growth inhibition [PI3K]. The note with it: for viability, T/C: stronger effect = lower value. The text has this:
Combinatorial screen of targeted agents with the PI3K inhibitors inavolisib, alpelisib, duvelisib, and copanlisib in multi-cell type tumor spheroids
A high-throughput screen of multi-cell type tumor spheroids was designed to identify active combinations of targeted small molecules and PI3K pathway inhibitors. Complex spheroids include a stromal component modeled by human endothelial cells (HUVEC) and fibroblasts modeled by human mesenchymal stem cells (MSCs). The concentration ranges selected for each drug and investigational agent were based upon clinically achievable concentrations if the clinical Cmax of the agent was known.
Compounds. The drugs and investigational agents: inavolisib (NSC800729), alpelisib (NSC765974), duvelisib (NSC772469), copanlisib (NSC816437), ipatasertib (NSC767898), afuresertib (NSC778305), talazoparib (NSC767125), sapanisertib (NSC764658), selumetinib (NSC741078), tovorafenib (DAY101, NSC766906), vemurafenib (NSC761431), ravoxertinib (NSC781343), sotorasib (NSC818433), MRTX1133 (NSC 836407), abemaciclib (NSC 768073), palbociclib (NSC758247), venetoclax (NSC 766270), SY5609 (NSC837396), enzalutamide (NSC755605), and darolutamide (NSC825331), were obtained from the National Cancer Institute (NCI) Developmental Therapeutics Program Chemical Repository. The FDA-approved anticancer drug set is available from the NCI Developmental Therapeutics Program. […] The stock solutions were prepared in dimethyl sulfoxide (DMSO, Sigma-Aldrich, St. Louis, MO, cat. D2650) at 800-fold the tested concentration and stored at -70 degrees C prior to their use. All drugs and investigational agents were tested over a range starting from a high concentration at or near the clinical Cmax and decreasing in half-log increments. If the clinical Cmax for an agent had not been determined, the highest concentration tested was 10 microM.
Cell Culture. All cells were maintained in an incubator at 37 degrees C and 5% CO2 with 95% humidity. The PDC lines were cultured according to standard operating procedures established by the NCI PDMR (https://pdmr.cancer.gov/sops/default.htm). All PDCs were thawed and cultured in Matrigel-coated flasks prepared with a working solution of 1X Ham's F-12 nutrient mix, without supplementation (Invitrogen, Waltham, MA, cat. 11765054), 100 U/mL penicillin-streptomycin (Invitrogen, cat. 15140122), and 2.5% Matrigel (Corning Inc., Corning, NY, cat. 354248) for the first three passages. The 354836-022-R-J1-PDC, 475296-252-R-J1-PDC, and 997726-040-R-J2-PDC lines were cultured in 6A media, which includes advanced DMEM/F-12 (Thermo Fisher Scientific, cat. 12634028), 10 mM HEPES (Thermo Fisher Scientific, cat. 15630080), 1X GlutaMAX supplement (Thermo Fisher Scientific, cat. 35050061), 0.1 mg/mL primocin (InvivoGen, San Diego, CA, cat. ant-pm-2), 10% defined fetal bovine serum, heat inactivated (HyClone Laboratories Inc., Logan, UT, cat. SH30070.03HI), 50% L-WRN conditioned media (ATCC, cat. CRL-3276), 1.25 mM N-Acetyl-L-cysteine (Sigma-Aldrich, cat. A9165), 10 mM nicotinamide (Sigma-Aldrich, cat. N0636), 1X B-27 supplement (Thermo Fisher Scientific, cat. 17504044), 1X N-2 supplement (Thermo Fisher Scientific, cat. 17502048), and 10 microM Y-27632 dihydrochloride (Tocris Bioscience, Bristol, United Kingdom, cat. 1254). The 624824-186-R-J2-PDC line was cultured in 6C/Colon 1B media, which includes all 6A media components plus 50 ng/mL human EGF recombinant protein (Thermo Fisher Scientific, cat. PHG0311). […]

Setting [1] is: curve of first compound, second compound 0.0316 µM.
The mark [2] stands for this setting: curve of first compound, second compound 0.1 µM.
The mark [3] stands for this setting: curve of first compound, second compound 0.316 µM.
[4] abbreviates: curve of first compound, second compound 1 µM.
[5] abbreviates: second compound 0.0316 µM, first compound 0.0316 µM.
Where [6] appears, read: second compound 0.0316 µM, first compound 0.1 µM.
The mark [7] stands for this setting: second compound 0.0316 µM, first compound 0.316 µM.
Where [8] appears, read: second compound 0.0316 µM, first compound 1 µM.
The mark [9] stands for this setting: second compound 0.0316 µM, first compound 3.16 µM.
[10] abbreviates: second compound 0.0316 µM, first compound 10 µM.
[11] abbreviates: second compound 0.1 µM, first compound 0.0316 µM.
Where [12] appears, read: second compound 0.1 µM, first compound 0.1 µM.
Setting [13] is: second compound 0.1 µM, first compound 0.316 µM.
[14] abbreviates: second compound 0.1 µM, first compound 1 µM.
The mark [15] stands for this setting: second compound 0.1 µM, first compound 3.16 µM.
Setting [16] is: second compound 0.1 µM, first compound 10 µM.
Setting [17] is: second compound 0.316 µM, first compound 0.0316 µM.
Where [18] appears, read: second compound 0.316 µM, first compound 0.1 µM.
The mark [19] stands for this setting: second compound 0.316 µM, first compound 0.316 µM.
Where [20] appears, read: second compound 0.316 µM, first compound 1 µM.
The mark [21] stands for this setting: second compound 0.316 µM, first compound 3.16 µM.
Where [22] appears, read: second compound 0.316 µM, first compound 10 µM.
[23] abbreviates: second compound 1 µM, first compound 0.0316 µM.
Where [24] appears, read: second compound 1 µM, first compound 0.1 µM.
[25] abbreviates: second compound 1 µM, first compound 0.316 µM.
Where [26] appears, read: second compound 1 µM, first compound 1 µM.
Where [27] appears, read: second compound 1 µM, first compound 3.16 µM.
[28] abbreviates: second compound 1 µM, first compound 10 µM.
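Further: spheroids exposed to agents for seven days before the viability read.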

As for `Cn1ncc(Cl)c1-c1cc(C(=O)NC(CN)Cc2cccc(F)c2)sc1Cl` (stereo unspecified) + CC(Nc1ccc2c(c1)OCCn1cc(N3C(=O)OCC3C(F)F)nc1-2)C(N)=O, the IC50 (curve of first compound, second compound 0.00316 µM) was 6.62 µM; the half-maximal inhibitory concentration (IC50) (curve of first compound, second compound 0.01 µM) stood at 5.81 µM; the IC50 under setting [1] amounted to 5.89 µM; the IC50 under setting [2] is 5.78 µM; the half-inhibitory concentration (IC50) under setting [3] is 6.34 µM; the IC50 under setting [4] turned out to be 5.53 µM. Moreover, the viability, T/C (second compound 0.00316 µM, first compound 0.0316 µM) is 101%; the viability, T/C (second compound 0.00316 µM, first compound 0.1 µM) is 82.3%; the viability, T/C (second compound 0.00316 µM, first compound 0.316 µM) is 96.3%; the viability, T/C (second compound 0.00316 µM, first compound 1 µM) is 92.7%; the viability, T/C (second compound 0.00316 µM, first compound 3.16 µM) was 78.6%; the viability, T/C (second compound 0.00316 µM, first compound 10 µM) was 33.6%. Besides, the viability, T/C runs as follows: (second compound 0.01 µM, first compound 0.0316 µM) 87.6%; (second compound 0.01 µM, first compound 0.1 µM) 96%; (second compound 0.01 µM, first compound 0.316 µM) 115%; (second compound 0.01 µM, first compound 1 µM) 104%; (second compound 0.01 µM, first compound 3.16 µM) 68.3%; (second compound 0.01 µM, first compound 10 µM) 33.6%. For the same compound, the viability, T/C under setting [5] is 104%; the viability, T/C under setting [6] is 92.2%; the viability, T/C under setting [7] is 91.9%; the viability, T/C under setting [8] is 88.8%; the viability, T/C under setting [9] is 73.7%; the viability, T/C under setting [10] is 30.3%. For the same compound, the viability, T/C is 90.2% under setting [11]; 108% under setting [12]; 95.1% under setting [13]; 83.7% under setting [14]; 73.4% under setting [15]; 30% under setting [16]. Moreover, the viability, T/C reads like this: under setting [17], 90.1%; under setting [18], 110%; under setting [19], 97%; under setting [20], 88.3%; under setting [21], 71.6%; under setting [22], 36.1%. The viability, T/C runs as follows: under setting [23], 100%; under setting [24], 101%; under setting [25], 93.9%; under setting [26], 81.1%; under setting [27], 74.6%; under setting [28], 27.9%.
Consider `C=CC(=O)N1CCN(c2nc(=O)n(-c3c(C)ccnc3C(C)C)c3nc(-c4c(O)cccc4F)c(F)cc23)C(C)C1` (stereo unspecified), for which the viability, T/C by setting is: (compound 0.0316 µM) 96.2% [middle of 4 runs]; (compound 0.1 µM) 92% [middle of 4 runs]; (compound 0.316 µM) 99% [middle of 4 runs]; (compound 1 µM) 99.8% [middle of 4 runs]; (compound 3.16 µM) 93% [middle of 4 runs]. Besides, the IC50 (curve of compound) was above 10 µM.
In the case of `CCCS(=O)(=O)Nc1ccc(F)c(C(=O)c2c[nH]c3ncc(-c4ccc(Cl)cc4)cc23)c1F` + Cc1nc(NC(=O)N2CCCC2C(N)=O)sc1-c1ccnc(C(C)(C)C(F)(F)F)c1, the IC50 reads like this: under setting [1], 4.02 µM; under setting [2], 4.28 µM; under setting [3], 4.25 µM; under setting [4], 4.51 µM; (curve of first compound, second compound 3.16 µM) 3.71 µM; (curve of first compound, second compound 10 µM) 2.99 µM. The viability, T/C was 108% under setting [5]; 94% under setting [6]; 94.7% under setting [7]; 81.2% under setting [8]; 66.6% under setting [9]; 3.55% under setting [10]. For the same compound, the viability, T/C by setting is: under setting [11], 90.6%; under setting [12], 92.5%; under setting [13], 84.8%; under setting [14], 91.2%; under setting [15], 66.2%; under setting [16], 4.03%. Also, the viability, T/C reads like this: under setting [17], 95.3%; under setting [18], 90.1%; under setting [19], 90.3%; under setting [20], 85%; under setting [21], 65.5%; under setting [22], 5.89%. The viability, T/C reads like this: under setting [23], 95.9%; under setting [24], 92.2%; under setting [25], 93.5%; under setting [26], 86.1%; under setting [27], 69.9%; under setting [28], 6.45%. Moreover, the viability, T/C by setting is: (second compound 3.16 µM, first compound 0.0316 µM) 96.8%; (second compound 3.16 µM, first compound 0.1 µM) 86.8%; (second compound 3.16 µM, first compound 0.316 µM) 91.9%; (second compound 3.16 µM, first compound 1 µM) 82.3%; (second compound 3.16 µM, first compound 3.16 µM) 57%; (second compound 3.16 µM, first compound 10 µM) 5.97%. For the same compound, the viability, T/C is 91.7% (second compound 10 µM, first compound 0.0316 µM); 86.4% (second compound 10 µM, first compound 0.1 µM); 87.4% (second compound 10 µM, first compound 0.316 µM); 87.8% (second compound 10 µM, first compound 1 µM); 48% (second compound 10 µM, first compound 3.16 µM); 4.82% (second compound 10 µM, first compound 10 µM).
Take `CCCS(=O)(=O)Nc1ccc(F)c(C(=O)c2c[nH]c3ncc(-c4ccc(Cl)cc4)cc23)c1F`: the viability, T/C (compound 0.0316 µM) was 95.5% [middle of 4 runs]; the viability, T/C (compound 0.1 µM) was 93.5% [middle of 4 runs]; the viability, T/C (compound 0.316 µM) is 97.2% [middle of 4 runs]; the viability, T/C (compound 1 µM) is 92.5% [middle of 4 runs]; the viability, T/C (compound 10 µM) was 2.66% [middle of 4 runs]. Besides, the IC50 (curve of compound) is 4.34 µM and 3.87 µM and 5.17 µM.
